Laboratory results: the supplement of paper PMC10627819

Tests used:
Assay in all cases: Bliss interaction score (quartile over a dose matrix) (fitness difference); higher = more antagonism (negative = synergy)
S. aureus Newman = tested on: S. aureus Newman
Procedure, shortened: (§1)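 Quartiles of the Bliss score were taken over technical, biological and donor/recipient replicates. That score is observed fitness minus the product of the single-drug fitness values, which were inferred from combination data. Fitness itself is OD595 at entry into stationary phase divided by the plate's robust no-drug mean, with a cap at 1.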

B. subtilis 168 = tested on: B. subtilis 168
Procedure, shortened: as §1

S. aureus DSM 20231 = tested on: S. aureus DSM 20231
Procedure, shortened: as §1

S. pneumoniae D39V = tested on: S. pneumoniae D39V
Procedure, shortened: as §1
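Further: first quartile when negative (synergy) and third quartile when positive (antagonism).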

| Compound | Bliss interaction score (S. aureus Newman) | Bliss interaction score (B. subtilis 168) | Bliss interaction score (S. aureus DSM 20231) | Bliss interaction score (S. pneumoniae D39V) |
| --- | --- | --- | --- | --- |
| CC1(C)S[C@@H]2[C@H](NC(=O)[C@H](N)c3ccc(O)cc3)C(=O)N2[C@H]1C(=O)O [Amoxicillin] + CO[C@@]12[C@H](COC(N)=O)C3=C(C(=O)C(C)=C(N)C3=O)N1C[C@@H]1N[C@@H]12 [MitomycinC] | 0.0558 | 0.0389 | -0.0743 | 0.0839 |
| CC1(C)S[C@@H]2[C@H](NC(=O)[C@H](N)c3ccc(O)cc3)C(=O)N2[C@H]1C(=O)O [Amoxicillin] + N[C@@H]1CONC1=O [CycloserineD] | 0.035 | 0.187 | -0.0593 | -0.108 |
| CC1(C)S[C@@H]2[C@H](NC(=O)[C@H](N)c3ccc(O)cc3)C(=O)N2[C@H]1C(=O)O [Amoxicillin] + O=C(O)[C@H]1/C(=C/CO)O[C@@H]2CC(=O)N21 [Clavulanic] | -0.117 | -0.152 | -0.114 | -0.0705 |
| CC1(C)S[C@@H]2[C@H](NC(=O)[C@H](N)c3ccc(O)cc3)C(=O)N2[C@H]1C(=O)O [Amoxicillin] + Oc1cc(Cl)ccc1Oc1ccc(Cl)cc1Cl [Triclosan] | 0.0346 | -0.0443 | 0.028 | -0.0734 |
| CO/N=C(\C(=O)N[C@@H]1C(=O)N2C(C(=O)[O-])=C(C[N+]3(C)CCCC3)CS[C@H]12)c1csc(N)n1 [Cefepime] + CC1(C)S[C@@H]2[C@H](NC(=O)Cc3ccccc3)C(=O)N2[C@H]1C(=O)O [PenicillinG] | -0.0463 | -0.0668 | 0.0733 | -0.0873 |
| CO/N=C(\C(=O)N[C@@H]1C(=O)N2C(C(=O)[O-])=C(C[N+]3(C)CCCC3)CS[C@H]12)c1csc(N)n1 [Cefepime] + CC(=O)O[C@H]1C[C@@]2(C)[C@@H](C[C@@H](O)[C@H]3[C@@]4(C)CC[C@@H](O)[C@@H](C)[C@@H]4CC[C@@]32C)/C1=C(\CCC=C(C)C)C(=O)O [Fusidic acid] | 0.0735 | 0.0845 | 0.062 | 0.174 |
| CO/N=C(\C(=O)N[C@@H]1C(=O)N2C(C(=O)[O-])=C(C[N+]3(C)CCCC3)CS[C@H]12)c1csc(N)n1 [Cefepime] + CCC[C@@H]1C[C@@H](C(=O)N[C@@H]([C@H]2O[C@H](SC)[C@H](O)[C@@H](O)[C@H]2O)[C@H](C)Cl)N(C)C1 [Clindamycin] | 0.0778 | 0.0651 | 0.0679 | 0.162 |
| CO/N=C(\C(=O)N[C@@H]1C(=O)N2C(C(=O)[O-])=C(C[N+]3(C)CCCC3)CS[C@H]12)c1csc(N)n1 [Cefepime] + CC[C@H]1OC(=O)[C@H](C)C(=O)[C@H](C)[C@@H](O[C@@H]2O[C@H](C)C[C@H](N(C)C)[C@H]2O)[C@](C)(OC)C[C@@H](C)C(=O)[C@H](C)[C@H]2N(CCCCn3cnc(-c4cccnc4)c3)C(=O)O[C@]12C [Telithromycin] | 0.0252 | 0.122 | 0.0789 | -0.0487 |
| CO/N=C(\C(=O)N[C@@H]1C(=O)N2C(C(=O)[O-])=C(C[N+]3(C)CCCC3)CS[C@H]12)c1csc(N)n1 [Cefepime] + CC[C@H]1OC(=O)[C@H](C)[C@@H](O[C@H]2C[C@@](C)(OC)[C@@H](O)[C@H](C)O2)[C@H](C)[C@@H](O[C@@H]2O[C@H](C)C[C@H](N(C)C)[C@H]2O)[C@](C)(O)C[C@@H](C)C(=O)[C@H](C)[C@@H](O)[C@]1(C)O [Erythromycin] | 0.0704 | 0.0672 | 0.0701 | 0.0938 |
| CO/N=C(\C(=O)N[C@@H]1C(=O)N2C(C(=O)[O-])=C(C[N+]3(C)CCCC3)CS[C@H]12)c1csc(N)n1 [Cefepime] + CC[C@H]1OC(=O)[C@H](C)[C@@H](O[C@H]2C[C@@](C)(OC)[C@@H](O)[C@H](C)O2)[C@H](C)[C@@H](O[C@@H]2O[C@H](C)C[C@H](N(C)C)[C@H]2O)[C@](C)(OC)C[C@@H](C)C(=O)[C@H](C)[C@@H](O)[C@]1(C)O [Clarithromycin] | 0.0613 | 0.0395 | 0.128 | 0.07 |
| CO/N=C(\C(=O)N[C@@H]1C(=O)N2C(C(=O)[O-])=C(C[N+]3(C)CCCC3)CS[C@H]12)c1csc(N)n1 [Cefepime] + CN(C)[C@@H]1C(O)=C(C(N)=O)C(=O)[C@@]2(O)C(O)=C3C(=O)c4c(O)ccc(Cl)c4[C@@](C)(O)[C@H]3C[C@@H]12 [Clortetracycline] | 0.105 | 0.0651 | 0.0809 | 0.163 |
| CO/N=C(\C(=O)N[C@@H]1C(=O)N2C(C(=O)[O-])=C(C[N+]3(C)CCCC3)CS[C@H]12)c1csc(N)n1 [Cefepime] + CN[C@H](CC(C)C)C(=O)N[C@H]1C(=O)N[C@@H](CC(N)=O)C(=O)N[C@H]2C(=O)N[C@H]3C(=O)N[C@H](C(=O)N[C@H](C(=O)O)c4cc(O)cc(O)c4-c4cc3ccc4O)[C@H](O[C@H]3C[C@](C)(N)[C@@H](O)[C@H](C)O3)c3ccc(c(Cl)c3)Oc3cc2cc(c3O[C@@H]2O[C@H](CO)[C@@H](O)[C@H](O)[C@H]2O[C@H]2C[C@](C)(NCc3ccc(-c4ccc(Cl)cc4)cc3)[C@@H](O)[C@H](C)O2)Oc2ccc(cc2Cl)[C@H]1O [Oritavancin] | 0.0749 | 0.0342 | 0.0977 | -0.0811 |
| CO/N=C(\C(=O)N[C@@H]1C(=O)N2C(C(=O)[O-])=C(C[N+]3(C)CCCC3)CS[C@H]12)c1csc(N)n1 [Cefepime] + CO/N=C(\C(=O)N[C@@H]1C(=O)N2C(C(=O)O)=C(COC(C)=O)CS[C@H]12)c1csc(N)n1 [Cefotaxime] | 0.0764 | 0.0354 | 0.0767 | 0.0698 |
